According to article PMC10063614, “Turning universal O into rare Bombay type blood” (Nature Communications, 2023):

Target: T1, FucOB (Amuc_1120), α-1,2-L-Fucosidase O to Bombay (Akkermansia muciniphila, UniProt B2UR61)
T1 construct: signal peptide (residues 1-23) removed, additional N-terminal 17-residue peptide with His tag; pET29a, E. coli BL21(DE3); monomer in crystal
Assay: released fucose by L-fucose dehydrogenase/NADPH assay
Format: biochemical
Conditions: 20 mM Tris-HCl pH 6.8, 37 °C, 30 min; enzyme:substrate 1:100,000

T1 sequence (B2UR61 entry or part of it): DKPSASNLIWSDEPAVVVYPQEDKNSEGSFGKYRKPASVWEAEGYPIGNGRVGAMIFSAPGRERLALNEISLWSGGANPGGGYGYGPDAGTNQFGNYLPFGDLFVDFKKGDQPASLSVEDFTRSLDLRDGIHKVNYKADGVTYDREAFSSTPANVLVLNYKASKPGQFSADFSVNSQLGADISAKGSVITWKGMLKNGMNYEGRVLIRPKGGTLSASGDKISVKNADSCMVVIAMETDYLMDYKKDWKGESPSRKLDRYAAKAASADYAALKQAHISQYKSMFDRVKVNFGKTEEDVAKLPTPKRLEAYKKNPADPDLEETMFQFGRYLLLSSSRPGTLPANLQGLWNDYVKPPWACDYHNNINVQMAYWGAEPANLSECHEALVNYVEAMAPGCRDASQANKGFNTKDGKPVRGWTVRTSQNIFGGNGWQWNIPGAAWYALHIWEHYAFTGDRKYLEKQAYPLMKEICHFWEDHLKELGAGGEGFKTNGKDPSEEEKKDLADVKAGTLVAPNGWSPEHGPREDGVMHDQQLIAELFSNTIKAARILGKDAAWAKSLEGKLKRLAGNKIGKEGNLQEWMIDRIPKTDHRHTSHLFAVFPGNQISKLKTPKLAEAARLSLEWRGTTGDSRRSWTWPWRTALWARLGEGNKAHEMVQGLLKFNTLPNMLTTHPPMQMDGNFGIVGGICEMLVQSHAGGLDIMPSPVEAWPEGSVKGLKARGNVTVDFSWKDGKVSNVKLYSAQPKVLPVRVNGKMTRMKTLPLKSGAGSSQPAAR

Compound	released fucose by L-fucose dehydrogenase/NADPH assay
C[C@@H]1O[C@@H](O[C@H]2[C@H](O[C@H]3[C@H](O)[C@@H](O)C(O)O[C@@H]3CO)O[C@H](CO)[C@H](O)[C@@H]2O)[C@@H](O)[C@H](O)[C@@H]1O (some centres unmarked) [2’-fucosyllactose]	FucOB hydrolyzes all three types of H antigen structures to obtain the afucosylated Bombay phenotype
CC(=O)N[C@H]1C(O)O[C@H](CO)[C@@H](O[C@@H]2O[C@H](CO)[C@H](O)[C@H](O)[C@H]2O[C@@H]2O[C@@H](C)[C@@H](O)[C@@H](O)[C@@H]2O)[C@@H]1O (some centres unmarked) [blood group H antigen triaose type II]	FucOB hydrolyzes all three types of H antigen structures to obtain the afucosylated Bombay phenotype
